“Also recorded” adds a separate entry of the source.
How the values were obtained:
[1] = system: F08G5.6::GFP (p38 MAPK PMK-1 pathway-dependent immune effector reporter); experiment: F08G5.6::GFP immune transcriptional reporter in C. elegans; type: in vivo
[2] = system: P. aeruginosa infection of C. elegans; experiment: "Slow killing" P. aeruginosa infection (pathogenesis) assay in C. elegans; type: in vivo
P. aeruginosa = experiment: In vitro P. aeruginosa growth assay in the absence of C. elegans; type: cell-based
[3] = system: C. elegans genome (immune and detoxification gene transcription); experiment: Transcriptome profiles of wild-type nematodes (Affymetrix whole genome genechips); type: in vivo
Procedure: The effects of R24 on C. elegans was further characterized by generating transcriptome profiles of wild-type nematodes following exposure to either 70 μM R24 or the solvent control DMSO using Affymetrix whole genome […] induced a remarkably robust transcriptional response that involved only a small fraction ( 1.3%) of the genes of the C. elegans genome. […] For example, seventy (70) of the two hundred sixty-nine (269) […]. aeruginosa using a previously described gene set. Troemel et al., (2006).

[4] = system: p38 MAPK PMK-1-dependent antimicrobial immune effectors; type: in vivo, C. elegans; details: qRT-PCR
C. elegans [5] = experiment: C. elegans survival in the absence of pathogen; type: in vivo
Excerpt: (§1) In reports describing the anti-infective, immunostimulatory xenobiotic R24 it was noted that this compound was toxic to nematodes growing in the absence of pathogen. Pukkila-Worley et al., (2012). […] FIG. 4A. […] FIG. 4B.

C. elegans [6] = experiment: C. elegans brood size; type: in vivo; details: absence of pathogen
Excerpt: as §1

[7] = system: C. elegans genome (immune and detoxification gene transcription); details: previously observed; not dependent on p38 MAPK PMK-1 pathway; cited from earlier work
[8] = system: p38 MAPK PMK-1-dependent antimicrobial immune effectors; details: nanoString codeset of 118 genes; previous study (Pukkila-Worley 2014); cited from earlier work
nematodes = experiment: Nematode killing by UPR inducers combined with immunostimulatory molecules; type: in vivo
Excerpt: In one embodiment, the present invention contemplates a method comprising administering small molecules having clinical antihelminthic efficacy by inducing an unfolded protein response (UPR) in endoplasmic reticulum. In one embodiment, the unfolded endoplasmic reticulum protein response is mediated by small molecules including, but not limited to, tunicamycin and bortezomib (Velcade®). […] See, FIG. 4C. Although it is not necessary to understand the mechanism of an invention, it is believed that components of the nematode UPR are strongly conserved and thus UPR inducers will have dose-limiting toxicity in mammals.
Nematocidal activity of different combinations of these molecules and known anti-helminthics (e.g. ivermectin and albendazole) can be tested to identify those that have synergistic activity. For example, antihelminthic efficacy of chemical inducers of the UPR (e.g. tunicamycin) can be used.

Row | Compound | F08G5.6::GFP expression in nsy-1(ums8) mutant exposed to R24, compared to untreated nsy-1(ums8) animals ([1]; nsy-1(ums8) gain-of-function mutant, 70 μM R24 (FIG. 11B)) | F08G5.6::GFP transgene expression ([1]; uninfected nematodes) | ability of R24 to prolong lifespan of C. elegans with mutations in four other p38 MAP kinase pathway components ([2]; p38 MAP kinase pathway mutants, data not shown) | R24-mediated lifespan prolongation of pmk-1(km25) null mutants infected with P. aeruginosa, compared to compound-treated wild-type ([2]; pmk-1(km25) null mutants, P<0.001) | C. elegans survival during P. aeruginosa bacterial infection ([2]; wild-type C. elegans) | growth of P. aeruginosa in an in vitro assay (P. aeruginosa) | number of the 269 R24-induced genes activated during infection with P. aeruginosa ([3]; 70 μM R24, overlap P<2.7×10^−16) [genes] | number of genes induced more than 50-fold ([3]; 70 μM R24 vs DMSO) [genes] | number of genes upregulated three-fold or greater ([3]; 70 μM R24 vs DMSO, P<0.025) [genes] | fraction of the genes of the C. elegans genome involved in the transcriptional response ([3]; 70 μM R24 vs solvent control DMSO, wild-type) [%] | antimicrobial immune effectors induced by R24 in wild-type that pmk-1(km25) mutants failed to upregulate [4] | C. elegans survival (C. elegans [5]) | brood sizes of nematodes exposed from the first larval stage (C. elegans [6]) | induction of detoxification genes/enzymes (CYPs, GSTs, UDPs) [7] | number of codeset genes whose induction by R24 was dependent on the p38 MAPK PMK-1 [8] [genes] | killing of nematodes in combination with immunostimulatory molecules (nematodes)
1 | Cc1ccc(Nc2nc(N)c3ccccc3n2)cc1Cl [R24] | markedly increased | strongly induced | dramatically attenuated | Lack of improved survivability; also recorded: significantly decreased | dose-dependent improvement; also recorded: Improved survivability; also recorded: protects | lack of effect; also recorded: did not have any effect | 70 | 125 | 269 | ~1.3 | six of ten | dose dependent shortening | dramatically smaller | robust induction; also recorded: causes the induction | 13 | 
2 | CC(C)C[C@H](NC(=O)[C@H](Cc1ccccc1)NC(=O)c1cnccn1)B(O)O [bortezomib] |  |  |  |  |  |  |  |  |  |  |  |  |  |  |  | act synergistically
3 | tunicamycin |  |  |  |  |  |  |  |  |  |  |  |  |  |  |  | act synergistically

— patent US10729690B2, “Antihelminthic medications for pathogenic nematodes” (priority 2016, dated 2020)
